Experimental data taken from patent US6369101B1, “Therapeutic method to treat herpes virus infection” (Regents of the University of Minnesota, priority 1999, dated 2002).
≈ marks a conversion by molar mass, not a printed value.

Assays:
[1] = system: Daudi cells; assay: CC50 in Daudi cells (Table 3); format: cell-based; conditions: Daudi cells, Epstein-Barr Virus section of Table 3
Procedure: Raji is a Burkitt's lymphoma cell line containing 60 EBV genome/cell, and was the primary cell used for screening antiviral activity against EBV early antigen (EA) expression. Daudi is a low level producer that contains 152 EBV genome copies/cell. It spontaneously expresses EBV EA in 0.25-0.5% of the cells. It was used in follow-up studies to confirm activity. […] All cell lines were maintained in RPMI-1640 medium supplemented with 10% FCS, L-glutamine and 100 μg/ml gentamicin. The cultures were fed twice weekly and the cell concentration was adjusted to 3×10^5/ml. The cells were kept at 37° C. in humidified atmosphere with 5% CO2.

[2] = system: Human laryngeal epithelial carcinoma cells (HEp-2); assay: Cytotoxicity in HEp-2 cells; format: cell-based
[3] = system: Varicella-Zoster Virus; assay: CPE inhibition in stationary cells (visual), VZV in HFF cells; format: cell-based; conditions: test compounds in DMSO
[4] = system: MEF cells; assay: CC50 in MEF cells (Table 3); format: cell-based; conditions: Mouse Cytomegalovirus section of Table 3
[5] = system: Mouse Cytomegalovirus; assay: CPE inhibition in stationary cells (visual), MCMV in MEF cells; format: cell-based; conditions: test compounds in DMSO
[6] = system: HSV-2 (MS strain); assay: Vaginal HSV-2 (MS) infection in guinea pigs, topical ointment; format: in vivo, guinea pig
Procedure: Female Hartley outbred guinea pigs 26 days old and weighing approximately 350 to 400 grams each were obtained from Charles River Breeding Labs, Wilmington, Mass. The animals were housed singly and given feed and water ad lib.
2% Betulin and allobetulin ointment were prepared aseptically in polyethylene glycol (PEG) as ointment base and stored at room temperature until used.
Female guinea pigs weighing 200 g were inoculated intravaginally with HSV-2 (MS strain). One hour before viral inoculation the animals were swabbed using Dacron-polyester tipped applicator moistened in sterile saline to remove vaginal secretions. The animals were then infected with one drop of HSV-2 suspension containing 1×10^4 pfu, and the surface of the vaginal mucosa was slightly scarified with a sterile Greer Derma Pick® Skin Testing System (Greer Labs, Lenoir, N.C.).
The treatment of infected guinea pigs was started 18 hours after infection and continued twice daily for 3 days. […] Each experiment included uninfected control, infected and placebo controls. […] The swabs were stored at −80° C. until analyzed. The virus content of the specimens was measured by plaque assay in HEp-2 cells and the mean virus titer was calculated. […] The variable assessed was typical HSV vesicle formation, size, number and whether confluent, induration at the site of infection and scab formation.

[7] = system: Human Cytomegalovirus; assay: CPE inhibition in stationary cells (visual), HCMV in HFF cells; format: cell-based; conditions: test compounds in DMSO
[8] = system: HSV-2 (MS Strain); assay: Cutaneous HSV-2 infection in rats, topical ointment; format: in vivo, rat; conditions: topical 2% ointment twice daily for 3 days

Row | Compound | CC50 [1] [µg/mL] | cytotoxicity (in words) ([2]; HEp-2 (human epithelial) cells) | Cell Cytotoxicity ([2]; HEp-2 cells, conc. per compound (ng/ml)) | EC50 [3] [µg/mL] | CC50 [4] [µg/mL] | EC50 [5] [µg/mL] | effect on vaginal HSV-2 infection (in words) ([6]; 2% ointment twice daily for 3 days beginning 18 hours after infection) | typical lesions and virus content in the infected vaginal area ([6]; by 6 to 8 days, 2% ointment twice daily for 3 days) | EC50 [7] [µg/mL] | effect on cutaneous HSV-2 infection (in words) [8]
1 | acycloguanosine [Acyclovir, reference compound] | >100 |  |  |  |  |  |  |  |  | 
2 | C=C(C)[C@@H]1CC[C@]2(CO)CC[C@]3(C)[C@H](CC[C@@H]4[C@@]5(C)CC[C@H](O)C(C)(C)[C@@H]5CC[C@]43C)[C@@H]12 [Betulin, lup-20(29)-ene-3β, 28-diol, reference compound] |  | less cytotoxicity | − | >0.004 | 0.08 (≈ 0.181 µM) | >0.02 | Significant effect | decreased significantly | 0.0029 (≈ 0.00655 µM) | significant effect
